Results as given in PubChem BioAssay (NCI).
“And” between values parts separate entries of the source, which are not always exact repeats. Equal values may be shown once.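 How tested: cells in 96-well plates exposed to compound for 48 hours at five concentrations. The concentration for 50% growth inhibition is given as GI50. TGI marks complete inhibition of growth.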

What was measured:
Assay in all cases: inhibition of tumour cell growth, NCI panel, 48 h
[1] = test system: A498 renal
[2] = test system: HT29 colon
[3] = test system: MDA-MB-435
[4] = test system: NCI-H460 lung
[5] = test system: NCI-H522 lung
[6] = test system: SF-295 CNS
[7] = test system: SK-MEL-28 melanoma
[8] = test system: SW-620 colon

Row | SMILES | GI50 [1] | TGI [1] | GI50 [2] | TGI [2] | GI50 [3] | TGI [3] | GI50 [4] | TGI [4] | GI50 [5] | TGI [5] | GI50 [6] | TGI [6] | GI50 [7] | TGI [7] | GI50 [8] | TGI [8]
1 | COc1ccc(C2CC(=O)Nc3c2c(C)nn3-c2nc3ccccc3[nH]2)cc1OC (stereo unspecified) | 2.01 µM | 13.4 µM | 5.66 µM | 40 µM | 3.25 µM | 18.3 µM | 3.46 µM | 16.2 µM | 3.83 µM | 25.6 µM | 1.77 µM | 6.91 µM | 4.9 µM | > 100 µM | 4.86 µM | 49.6 µM
2 | Cn1cc(-c2[nH]c3cc(NC(=O)[C@H](N)C4CCCCC4)cc4c3c2C=NNC4=O)cn1 | 0.0542 µM and 0.0975 µM | 0.352 µM and 0.579 µM | 1.44 µM and 0.994 µM | 8.24 µM and > 10 µM | 0.245 µM and 0.286 µM | 1.23 µM and 1.28 µM | 4.11 µM and 3.59 µM | 19.9 µM and > 10 µM | 0.352 µM and 0.222 µM | 1.96 µM and 2.77 µM | 0.273 µM and 0.318 µM |  | 7.99 µM | 21.9 µM and > 10 µM | 0.53 µM and 0.829 µM | 13.6 µM and > 10 µM
3 | CCN(Cc1c(F)cccc1C(F)(F)F)c1ccc(CO)c(Cl)c1 | < 0.0191 µM | 0.0463 µM | 2.99 µM | 17.7 µM | 14.2 µM | 28.3 µM | 0.0894 µM | 17.2 µM | 12.6 µM | 27 µM |  | 1.12 µM | 13.9 µM | 27.6 µM | 0.79 µM | 20.4 µM
4 | Cc1cc(S(=O)(=O)Nc2nc3ccccc3s2)c(SCc2ccccc2)cc1Cl | 12.9 µM | 28.6 µM |  |  | 15.7 µM | 31.7 µM | 21.4 µM | > 100 µM | 31.5 µM | > 100 µM | 11 µM | 32.4 µM | 21.9 µM | 52.7 µM | 18.8 µM | 37.6 µM
5 | CNC(=O)c1cc(Oc2ccc(NC(=O)Nc3ccc(Cl)c(C(F)(F)F)c3)cc2)ccn1 | 3.1 µM and 2.27 µM and 2.15 µM | 9.48 µM and 6.38 µM and 6.52 µM | 2.54 µM and 2.45 µM and 2.36 µM | > 10 µM and 8.39 µM and 9.02 µM | 1.96 µM and 1.82 µM and 1.84 µM | 5.74 µM and 4.33 µM and 4.92 µM | 3.17 µM and 2.88 µM and 2.44 µM | > 10 µM and 10.2 µM and 7.09 µM | 1.79 µM and 2.14 µM and 2.06 µM | 5.79 µM and 5.64 µM and 6.29 µM | 2.34 µM and 1.83 µM and 1.69 µM | > 10 µM and 5.33 µM and 4.56 µM | 2.42 µM and 2.59 µM and 2.63 µM | 8.45 µM and 7.23 µM and 7.5 µM | 4.26 µM and 3.05 µM and 2.87 µM | > 10 µM and 12 µM and 9.35 µM
6 | CN1CCN(CCCn2c3c(sc4ncccc43)c(=O)n3nnc(-c4ccccc4)c23)CC1 | 6.7 µM | 21.3 µM | 1.82 µM | 3.88 µM | 1.79 µM | 3.5 µM | 1.65 µM | 3.37 µM | 1.6 µM | 3.3 µM | 1.73 µM | 3.36 µM | 18 µM | 32.2 µM | 1.52 µM | 3.25 µM
7 | COC1C[C@H](O[C@@H]2C[C@H](O[C@@H]3C[C@H](O[C@@H]4C(=O)c5c(cc6cc(O[C@H]7C[C@@H](O[C@H]8C[C@@H](O)[C@H](O)C(C)O8)[C@H](O)C(C)O7)c(C)c(O)c6c5O)C[C@H]4C(OC)C(=O)[C@@H](O)[C@@H](C)O)OC(C)[C@H]3O)OC(C)[C@@H]2O)OC(C)[C@@H]1O (stereo partly specified) | 0.0395 µM | 0.108 µM | 0.0974 µM | > 32.5 µM | 0.0949 µM | 0.45 µM | 0.0802 µM | > 32.5 µM | 0.0696 µM | 0.265 µM | 0.104 µM | > 32.5 µM |  |  | 0.127 µM | > 32.5 µM
8 | Nc1cc2c3ccccc3ccc2c2ccccc12 | > 100 µM | > 100 µM | > 100 µM | > 100 µM | > 56.1 µM | > 100 µM | 7.63 µM | > 100 µM | > 100 µM | > 100 µM | > 100 µM | > 100 µM | > 100 µM | > 100 µM | > 100 µM | > 100 µM
9 | CC1(/C=C/c2ccc(-c3ccccc3)cc2)CCn2cnc3ncnc(c32)N1O (stereo unspecified) | 0.0387 µM | 3.99 µM | 0.526 µM | 41.7 µM | 0.646 µM | 39.6 µM | 0.264 µM | 8.25 µM | 0.521 µM | 34 µM | 0.419 µM | 17.1 µM | 0.656 µM | 20 µM | 0.529 µM | 24.6 µM
10 | C=C1C(=O)O[C@H]2[C@H]1CC/C(COC(=O)NCCc1ccc(Br)cc1)=C\CC[C@@]1(C)O[C@@H]21 | 2.07 µM | 4.21 µM | 1.32 µM | 3.38 µM | 1.28 µM | 2.81 µM | 2.06 µM | 4.64 µM | 1.16 µM | 2.73 µM | 3.81 µM | 15.5 µM | 1.47 µM | 3.12 µM | 0.711 µM | 2.4 µM
11 | Oc1ccc(Cl)cc1N=Nc1c(O)ccc2ccccc12 |  |  |  | > 100 µM |  | > 100 µM |  |  |  | > 100 µM |  | > 100 µM |  | > 100 µM |  | > 100 µM
12 | C#Cc1cccc(NC(=O)C2CCCCN2C(=O)CCl)c1 (stereo unspecified) |  |  | 18.7 µM | 41.9 µM | 15.8 µM | 60.7 µM | 23.9 µM | > 82.5 µM | 8.72 µM | 24.4 µM | > 82.5 µM | > 82.5 µM | 54.1 µM | > 82.5 µM | 12.1 µM | 31.5 µM
13 | COc1cc(OC)c(OC)cc1/C=C/c1ccc2ccccc2n1 |  |  |  | > 10 µM |  | > 10 µM |  |  |  | > 10 µM |  | > 10 µM |  | > 10 µM |  | > 10 µM
14 | C=C1[C@H](O)C[C@@H](C(C)C(O)CC=C(C)C)[C@@H](O)[C@@H]2C(C)=CC[C@@H]12 (stereo partly specified) |  |  | > 100 µM | > 100 µM | > 100 µM | > 100 µM | > 100 µM | > 100 µM | 30.3 µM | 86.4 µM | > 100 µM | > 100 µM | > 100 µM | > 100 µM | > 100 µM | > 100 µM
15 | CS(=O)(=O)Nc1cc(-c2ccc3ncnc(Nc4ccc(OCc5ccccn5)c(Cl)c4)c3c2)cnc1Cl | 0.155 µM | 0.641 µM | 0.456 µM | 38.5 µM | 0.376 µM | 2.78 µM | 0.502 µM | > 100 µM | 0.131 µM | 2.35 µM | 0.526 µM | 4.75 µM | 0.256 µM | 3.92 µM | 0.448 µM | 10.5 µM
16 | COc1cc2cc(C(=O)Nc3ccccc3)c(N)nc2cc1OC | 4.7 µM | 30.9 µM | 51.5 µM | > 100 µM | 48.7 µM | > 100 µM | 73.9 µM | > 100 µM | 32.7 µM | > 100 µM | 46.7 µM | > 100 µM | 75.4 µM | > 100 µM | > 100 µM | > 100 µM
17 | O=C(COc1ccc(Cl)cc1Cl)NNc1ccc([N+](=O)[O-])cc1 | 21.6 µM | 53.8 µM | > 100 µM | > 100 µM | > 100 µM | > 100 µM | > 100 µM | > 100 µM |  |  | 19.7 µM | 40.1 µM | 39.1 µM | > 100 µM | > 100 µM | > 100 µM
18 | O=C(C#Cc1ccccc1)N1CCCCC1 |  | > 100 µM |  | > 100 µM |  | > 100 µM |  | > 100 µM |  | > 100 µM |  | > 100 µM |  | > 100 µM |  | > 100 µM
19 | CN(N=O)N1C(=O)SCC(c2ccccc2)(c2ccccc2)C1=O |  | > 100 µM |  | > 100 µM |  | 73.3 µM |  | > 100 µM |  | 91.1 µM |  | > 100 µM |  | > 100 µM |  | > 100 µM
20 | CCCCCCCN(CCCCCCC)C(=N)c1ccc(OC)c2ccccc12 | 0.419 µM | 1.8 µM |  |  | 1.48 µM | 2.89 µM |  |  | 1.25 µM | 2.73 µM | 1.24 µM | 2.72 µM | 1.62 µM | 3.17 µM | 0.825 µM | 2.24 µM
21 | Cc1ccc(O)c(C(=O)/C=C/c2ccccc2)c1 |  |  |  | > 100 µM |  | > 100 µM |  | > 100 µM |  | > 100 µM |  | > 100 µM |  | > 100 µM |  | > 100 µM
22 | O=C(Nc1ccn(C2CCC(COC(c3ccccc3)(c3ccccc3)c3ccccc3)O2)c(=O)n1)c1ccccc1 (stereo unspecified) |  |  |  | 6.09 µM |  | 10.6 µM |  | 10.4 µM |  | 19.2 µM |  | 5.9 µM |  | 16.9 µM |  | 15.2 µM
23 | COc1ccc(CC2OC3(CCCCC3)CC3CCCCN32)cc1 (stereo unspecified) |  |  |  | > 100 µM |  | > 100 µM |  | > 100 µM |  | > 100 µM |  | > 100 µM |  | > 100 µM |  | > 100 µM
24 | c1ccc2cc(Cn3c(-c4cccc5ccccc45)[n+](Cc4ccc5ccccc5c4)c4c5ccccc5c5ccccc5c43)ccc2c1 | 0.193 µM | 0.779 µM |  |  | 0.359 µM | 1.38 µM | 0.254 µM | 1.41 µM |  |  | 0.203 µM | 1.05 µM |  |  |  | 
25 | O=C(Nc1cccc(Cl)c1)Nc1cc(C(F)(F)F)ccc1Cl | 2.16 µM | 6.36 µM | 3.03 µM | 11.3 µM |  |  | 2.54 µM | 6.84 µM | 2.14 µM | 7.7 µM |  |  | 4.19 µM | 29.6 µM | 3.28 µM | 10.6 µM
26 | COc1ccc2c(c1)C(=O)CC(C(N)=O)C2 (stereo unspecified) |  |  |  | > 100 µM |  | > 100 µM |  | > 100 µM |  | > 100 µM |  | > 100 µM |  | > 100 µM |  | > 100 µM
